Source: US11793824B2, “Administration of nicotinamide mononucleotide in the treatment of disease” (Washington University, priority 2013, dated 2023)

Legend:
NAMPT rod-CKO mice = assay: ERG rescue in NAMPT rod-CKO mice; format: in vivo, mouse
Description: (§1) The inventors examined the effect of selectively disrupting NAD biosynthesis within PR. The inventors utilized the cre-lox strategy to generate mice that had NAMPT conditionally deleted from either rods (NAMPT rod-CKO) or cones (NAMPT cone-CKO). The NAMPT fl/fl mice as well as the rhodopsin-cre and cone opsin-cre mice have been previously characterized. Both rod and cone cko mice are generated with normal Mendelian frequencies and are born normal with no observable systemic abnormalities (data not shown). All structural and functional analyses performed in CKO mice are analyzed in comparison to littermate controls. Rods constitute a majority of the PR neurons (97% of all photoreceptors). […] Neurosensory retinal degeneration was associated with secondary atrophy and pallor of the optic nerve (FIG. 29C).
The present inventors determined that exogenous supplementation with NMN is able to rescue PR neurons from cell death in CKO mice. Intraperitoneal (i.p.) delivery was chosen to obtain early and sustained levels of NMN. In these experiments, NAMPT rod-CKO mice were given NMN (150 mg/kg) or PBS i.p. daily starting at day P5. […] There was no effect of NMN on littermate control animals.

[1] = Insulin tolerance test in old mice; format: in vivo, mouse; conditions: 100 and 300 mg/kg groups, body weight-matched, 12-month time point, 17 month-old mice
Description: A 12 month-long NMN administration study using wild-type mice under a regular chow-fed condition was conducted. NMN was administered through drinking water, and two doses of NMN, 100 and 300 mg/kg body weight/day, were tested. […] To assess beneficial and possible adverse effects of NMN, a variety of physiological parameters were periodically monitored, including body weight, body temperature, food and water intake, fed and fasted blood glucose levels, fed and fasted plasma lipid panels, and glucose and insulin tolerance, in NMN-administered and control mice. Blood chemistry, blood cell counts, urine strip test, and other physiological tests including physical activity test were also checked.
(See Methods; Administration of NMN through Drinking Water and Determination of NMN Stability and Toxicity). As illustrated in FIG. 9A-B, insulin tolerance results from body weight-matched mice in the control and the 100 and 300 mg/kg NMN-administered groups at the 12-month time point are presented. Blood glucose levels (FIG. 9A) and percent glucose changes (FIG. 9B) after insulin injection are shown. The results were analyzed with two-way RANOVA and one-way ANOVA. All values are presented as mean±SEM (n=10-15 for each group).

NAMPT cone-CKO mice = assay: ERG rescue in NAMPT cone-CKO mice; format: in vivo, mouse; conditions: NMN i.p.
Description: as §1
These quantifiable structural and functional changes were associated with decrease in visual acuity in cone-CKO mice (FIG. 30E). Histopathologic analyses confirmed outer nuclear layer degeneration with subsequent multilayer retinal degeneration and cell death in cone-CKO mice similar to the changes seen above for rod-CKO mice. […] NMN treatment had no effect on littermate controls (FIG. 33A-B). […] Furthermore, providing NMN treatment is able to rescue PR neurons and vision.

[2] = system: Nampt Ad-Cre infected NSPCs; assay: Nampt Ad-Cre infected neurospheres with or without NMN: NAD+, proliferation, differentiation; format: cell-based, mouse
Description: NAD+ levels were determined using an HPLC system (Shimadzu) with a Supelco LC-18-T column (15 cm×[…]; Sigma), as described previously (Yoshino et al, 2011).
Neurospheres derived from Nampt^flox/flox mice were infected with Ad5 Cre recombinase- or b-galactosidase-expressing (LacZ, control) adenoviruses at an MOI of 100. All assessments were performed at least 6 days post infection.
Neurospheres derived from Nampt^flox/flox mice were dissociated by trypsin digestion and seeded at similar cell densities in 24-well plates with fresh growth medium. Every 24 hours, neurospheres from triplicate wells were collected, dissociated, and counted on a hemocytometer using 0.2% trypan blue exclusion to distinguish viable cells. For analysis of neurosphere diameter, the largest neurosphere in each well was imaged (20× objective) and the diameter was calculated using ImageJ. For secondary neurosphere analysis, the total number of neurospheres in each well was counted at 7 days post-plating.
Three to five days after their first passage, neurospheres were trypsinized, washed with dissociation medium, and plated at 150,000 cells per well in 24-well plates in differentiation medium [growth medium without FGF and EGF and with BDNF (5 ng/mL, Peprotech, 450-02) on glass coverslips coated with poly-D-lysine (50 ug/mL; Sigma) and laminin (20 ug/mL; BD Biosciences)]. 6-well plates were coated with poly-D-lysine (20 ug/mL) and laminin (10 ug/mL). […] The percentage of oligodendrocyte precursor cells (OPCs) generated was analyzed after 2 d of differentiation, and the percentage of differentiated oligodendrocytes was analyzed after 6-7 d of differentiation. […]
Nampt Ad-Cre NSPCs were unable to increase their cell number between 24 and 144 hours of culture. […] Since NSPC self-renewal decisions can also contribute to cell number, the inventors assessed secondary neurosphere formation, an assay that quantifies the ability of neurosphere inhabitant cells to reformulate neurospheres upon dissociation. […]

NC(=O)c1ccc[n+]([C@@H]2O[C@H](COP(=O)([O-])O)[C@@H](O)[C@H]2O)c1 [NMN, nicotinamide mononucleotide]
effect on littermate control animals (NAMPT rod-CKO mice; NMN 150 mg/kg i.p. daily): no effect | photopic and scotopic function (ERG) (NAMPT rod-CKO mice; NMN 150 mg/kg i.p. daily from P5, ERG at 4 weeks, vs PBS): significant rescue | insulin sensitivity (insulin tolerance test) [1]: significantly enhanced insulin sensitivity | effect on littermate controls (NAMPT cone-CKO mice): no effect | ERG function (NAMPT cone-CKO mice; vs PBS treated cone-CKO mice): improve ERG function | rescue of reduction in NAD+ levels in Nampt Ad-Cre NSPCs ([2]; NMN 100 μM, 48 hours, eight days post deletion): rescued | proliferative potential of Nampt Ad-Cre cells ([2]; NMN 200 μM): fully reactivate | defects in differentiation (oligodendrogenesis, Nestin+ retention) of Nampt Ad-Cre NSPCs ([2]; treatment with NMN, 6-7 days of differentiation): rescued defects in oligodendrogenesis
